Laboratory results published in patent publication US11364211B2, “Methods for selecting phosphatase selective and non-selective phosphatase inhibitors” (MEDICAL RESEARCH COUNCIL, priority 2015, dated 2022).
Entries after “also recorded” stand apart in the source; their conditions may differ.

How the values were obtained:
[1] = Toxicity and weight in mice treated for 2 weeks; format: in vivo, mouse; set-up: toxicity / clinical signs: dose or concentration left out as unconfirmed
Description: For studying the effect of a compound of Example 1 on weight, C3H/B6 mice were gavaged orally once a day with compounds of Example 1 and mice weight was recorded daily for 2 weeks.
Mice were treated with Example 1 and monitored closely to detect any clinical signs. […] This establishes that PPP1R15B inhibition is not toxic. This was surprising and unanticipated as prior to this study one would have speculated that PPP1R15B inhibitors would be so deleterious that they would have no therapeutic potential.

[2] = Tissue distribution in mice after oral gavage; format: in vivo, mouse
Description: Pharmacokinetics studies were performed by XenoGesis. TST3 was administrated orally in C57BL/6J males. Plasma samples were prepared by protein precipitation with methanol containing internal standards. Tissues were weighed and prepared by homogenisation (1:3 in phosphate buffered saline) and protein precipitated with methanol containing internal standard. Following the addition of methanol, plasma and tissue samples were placed at −20° C. for 1 hour (or overnight) to allow proteins to precipitate. The samples were then centrifuged at 2,500×g (3,400 rpm) for 20 minutes at 4° C. The supernatants were analysed by LC-MS/MS.

R15A = molecular target: T1, R15A (Homo sapiens, UniProt O75807); test: SPR of recombinant R15A binding to immobilized bio-GBZ; conditions: isolated R15A fragment, compound immobilized on chip
T1 construct: the cDNAs encoding amino acids 325-636 of PPP1R15A; MBP (N); His (C); made in house; host or cells: E. coli BL21-Gold
Description: B. SPR sensorgrams of R15A and R15B binding to bio-GBZ immobilized on the SPR sensor chip surface. R15A/B concentration=0.0244-12.5 μM.
Here we set out to develop a generalizable strategy to identify new selective phosphatase inhibitors. First, we expressed and purified R15A and R15 B (FIG. 12) and used surface plasmon resonance (SPR) to measure binding affinities of known R15A inhibitors to their targets. We tried to immobilized R15 on SPR chip but this method produced inconsistent results, probably because the natively unstructured proteins precipitate on the chip. We therefore used biotynilated guanabenz (GBZ) (7) that we immobilized on the chip and tested binding of the proteins on the immobilized compound (FIGS. 13A and 13B).
A Biacore T200 (GE Healthcare) system was used for all experiments and biotinylated GBZ (bio-GBZ) (Tsaylter 2011) or bio-PP1 was captured on a Sensor Chip SA (GE Healthcare). […]

PPP1R15A-PP1 complex = molecular target: T2, PPP1R15A-PP1 complex (Homo sapiens, UniProt O75807); test: SPR steady-state binding to R15A-PP1c holophosphatase on streptavidin chip
T2 construct: the cDNAs encoding amino acids 325-636 of PPP1R15A; made in house; host or cells: R15A fragment: E. coli BL21-Gold; BAP-PP1γ: Sf9 insect cells (baculovirus)
Description: The streptavidin coated surface was activated by 1 min injection with a solution of 50 mM NaOH and 1 M NaCl. Biotin-PP1 was diluted in the running buffer (50 mM Tris pH 7.5, 100 mM NaCl, 0.1 mM EGTA, 1 mM MnCl2, 0.05% Tween 20) and injected at approximately 300 nM concentration directly to streptavidin coated surface for 100 sec or to reach immobilization level of biotin-PP1 corresponding to ˜7000 RU. A blank immobilization was performed for one of the SA sensor chip surface to use as a reference.
With minor deviations, the same procedure and conditions were used in all binding experiments. Small molecules were stored as 50 mM stock solutions in 100% DMSO. Prior to determining binding constants, serial dilutions of either 12 or 8 concentrations of the compounds were prepared in the running buffer in a 96-well plate. […] Then, without regenerating the surface, the compound dilution series was injected onto the surface of the chip Sensorgrams were analyzed using the Biacore T200 evaluation software and the binding constants determined based on a steady-state model. Kinetic experiments are carried out using different concentrations of the compound and their respective equilibrium binding levels determined.
Surface Plasmon Resonance (SPR) was used to measure the binding affinity of compounds to the PPP1R15A/B-PP1 phosphatase complex. Biotin acceptor peptide (BAP) was fused to the N-terminus of PP1γ, which enables the biotinylation of the BAP-tagged protein in Sf9 insect cells. After purification the BAP-PP1γ protein was captured on a streptavidin sensor chip (SA-chip, GE healthcare) to a response level of ˜5.000 RU. Using controlled biotinylation enables orientated and uniform immobilization on the sensor chip surface. The PP1γ was then used to capture PPP1R15A/B and form a holophosphatase complex on the surface of the streptavidin chip. This complex can then be used to test binding of compounds. 10 μM PPP1R15A/B protein concentration was used to form the holophosphatase complex during a 80 s injection. […] After the concentration series (8 or 12 concentrations) is completed the surface is regenerated with 3 M NaCl and we can capture R15A/B again to form a fresh holophosphatase complex to measure a binding of another compound concentration series. Analysing the level of equilibrium binding as a function of concentration gives interaction affinities or steady-state binding affinity (KD).
The streptavidin coated surface was activated by 1 minute injection with a solution of 50 mM NaOH and 1 M NaCl three times at a flow rate of 10 μl/min. bio-GBZ or bio-PP1c was diluted in the running buffer (50 mM Tris pH 7.5, 100 mM NaCl, 0.1 mM EGTA, 0.05% Tween 20, 0.1% DMSO) and injected at approximately 300 nM concentration at a flow rate of 10 μl/min directly to streptavidin coated surface to reach immobilization level of bio-GBZ or bio-PP1c corresponding to ˜200 and 6000 RU, respectively. A blank immobilization was performed for one of the SA sensor chip surface to use as a reference.
With minor deviations, the same procedure and conditions were used in all binding experiments. Small molecules were stored as 50 mM stock solutions in 100% DMSO. Prior to determining binding constants, serial dilutions of either 12 or 8 concentrations of the compounds were prepared in the running buffer in a 96-well plate. […] This was followed by 1 minute stabilization period, to wash off any unspecific binding. […]

T2 sequence (O75807 325-636): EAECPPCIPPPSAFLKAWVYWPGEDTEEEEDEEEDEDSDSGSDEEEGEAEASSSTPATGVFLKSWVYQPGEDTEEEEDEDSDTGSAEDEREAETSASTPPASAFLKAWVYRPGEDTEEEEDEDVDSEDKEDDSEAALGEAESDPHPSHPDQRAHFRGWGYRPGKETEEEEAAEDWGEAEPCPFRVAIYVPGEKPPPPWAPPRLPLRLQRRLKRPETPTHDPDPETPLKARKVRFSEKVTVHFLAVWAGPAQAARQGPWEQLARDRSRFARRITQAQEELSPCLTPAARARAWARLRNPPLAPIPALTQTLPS
T2 sequence (P36873 whole entry partner, the tested form may be a part): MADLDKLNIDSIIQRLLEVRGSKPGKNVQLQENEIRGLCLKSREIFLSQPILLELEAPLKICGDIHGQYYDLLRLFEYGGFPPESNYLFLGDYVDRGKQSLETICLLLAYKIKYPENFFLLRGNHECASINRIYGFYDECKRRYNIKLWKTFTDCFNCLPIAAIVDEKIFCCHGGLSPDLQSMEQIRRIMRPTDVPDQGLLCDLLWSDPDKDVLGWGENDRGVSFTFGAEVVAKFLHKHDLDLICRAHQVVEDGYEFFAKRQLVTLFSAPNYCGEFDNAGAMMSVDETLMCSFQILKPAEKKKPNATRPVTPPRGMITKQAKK
T1 sequence (O75807 325-636, stated change not applied): as the sequence (O75807 325-636) above

Kd (R15A) [µM]	binding to R15A-PP1c (in words) (PPP1R15A-PP1 complex)	Kd (PPP1R15A-PP1 complex; steady-state affinity, listed as GBZ) [µM]	Compound	toxicity / clinical signs ([1]; once a day for 2 weeks)	weight gain ([1]; up to 10 mg/mg once a day for 2 weeks)	tissue distribution (plasma, brain, spinal cord, pancreas, liver) [2]
–	–	–	[H]/N=C(\N)NN=Cc1cccc(Cl)c1Cl [Example 1, (E)-2-(2,3-dichlorobenzylidene)hydrazine-1-carboximidamide]	undistinguishable from mice treated with placebo; also recorded: not toxic	gained weight normally	good tissue distribution; also recorded: extensive tissue distribution
11	strongly bound	0.122	N=C(N)N/N=C/c1c(Cl)cccc1Cl [Guanabenz, reference compound]	–	–	–
